Reference: publication PMC9019904, “AD Informer Set: Chemical tools to facilitate Alzheimer's disease drug discovery” (Alzheimer's & Dementia : Translational Research & Clinical …, 2022)
Values after ≈ are worked out from the molar mass of the structure shown. One block for each compound: values may come before it.

Columns and labels:
[1] = Kinetic solubility in aqueous buffer pH 7.4 by total chemiluminescent nitrogen determination (Analiza); conditions: aqueous buffer, pH 7.4, aqueous buffer, kinetic from dmso stock
[2] = test system: HMC3 (human microglia) cell line; experiment: pHrodo-myelin phagocytosis/cell viability high content imaging assay: phagocytosis signal; assay type: cell-based
How it was run: (§1)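 Mouse BV2 and human HMC3 microglia given pHrodo-myelin; phagocytosis and cell viability imaged together by high content imaging about 22 hours after myelin addition. Three measurements extracted, including intensity increase and decrease marking early and later apoptosis.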

[3] = test system: BV2 (mouse microglia) cell line; experiment: as above; assay type: cell-based
How it was run: as §1

[4] = test system: HMC3 (human microglia) cell line; experiment: pHrodo-myelin phagocytosis/cell viability high content imaging assay: viability (cell count, nuclear area, nuclear intensity); conditions: 48 hours treatment
How it was run: (§2)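 Viability was read as total cell count per well by high-content imaging, with mean average nuclear intensity per cell profiling apoptosis (rise early, fall late). Compounds were given at 10 μM for 48 h, pHrodo-myelin being added for the final 20 h. Values are means of two points as % untreated control.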

[5] = test system: BV2 (mouse microglia) cell line; experiment: as above; conditions: 48 hours treatment
How it was run: as §2

[6] = HMC3 cells, 10 uM compound, 48 hours treatment, pHrodo-myelin final 20 hours
[7] = BV2 cells, 10 uM compound, 48 hours treatment, pHrodo-myelin final 20 hours
[8] = HMC3, compound 10 uM, pHrodo-myelin
[9] = BV2, compound 10 uM, pHrodo-myelin

solubility kinetic [1]: 119 µM (≈ 48.2 µg/mL)
SMILES: CC(C)(O)c1coc(S(=O)(=O)NC(=O)Nc2c3c(cc4c2CCC4)CCC3)c1 [MCC950]

SMILES: O=C(O)c1cc2nc(-c3ccc(Cl)cc3)cc(C(F)(F)F)n2n1 [UNC10302881A]
4. Phagocytosis (% control) [2, 6]: 94.6 % control
4. Phagocytosis (% control) [3, 7]: 163.1 % control
1. Cell count (% control) ([4]; HMC3 cells, 10 uM compound): 123.0 % control
2. Nuclear Area (% Control) ([4]; HMC3 cells, 10 uM compound): 99.8 % Control
3. Nuclear DNA Intensity (% control) ([4]; HMC3 cells, 10 uM compound): 93.1 % control
1. Cell count (% control) ([5]; BV2 cells, 10 uM compound): 116.3 % control
2. Nuclear Area (% Control) ([5]; BV2 cells, 10 uM compound): 105.9 % Control
3. Nuclear DNA Intensity (% control) ([5]; BV2 cells, 10 uM compound): 97.1 % control

SMILES: O=C(Nc1ccc2[nH]nc(-c3ccncc3)c2c1)[C@@H]1CCN(CC(=O)N2CCN(c3ccc(-c4ncccn4)cc3)CC2)C1 [UNC10302854A]
4. Phagocytosis (% control) [2, 6]: 37.1 % control
4. Phagocytosis (% control) [3, 7]: 359.5 % control
1. Cell count (% control) ([4]; HMC3 cells, 10 uM compound): 103.4 % control
2. Nuclear Area (% Control) ([4]; HMC3 cells, 10 uM compound): 110.6 % Control
3. Nuclear DNA Intensity (% control) ([4]; HMC3 cells, 10 uM compound): 94.1 % control
1. Cell count (% control) ([5]; BV2 cells, 10 uM compound): 43.5 % control
2. Nuclear Area (% Control) ([5]; BV2 cells, 10 uM compound): 114.7 % Control
3. Nuclear DNA Intensity (% control) ([5]; BV2 cells, 10 uM compound): 111.9 % control

SMILES: CCCCCOc1cc2c(cc1-c1cc(/C=C/C(=O)O)ccc1O)C(C)(C)CCC2(C)C [UNC10302971A]
4. Phagocytosis (% control) [2, 6]: 107.7 % control
4. Phagocytosis (% control) [3, 7]: 103.8 % control
1. Cell count (% control) ([4]; HMC3 cells, 10 uM compound): 103.0 % control
2. Nuclear Area (% Control) ([4]; HMC3 cells, 10 uM compound): 101.2 % Control
3. Nuclear DNA Intensity (% control) ([4]; HMC3 cells, 10 uM compound): 101.8 % control
1. Cell count (% control) ([5]; BV2 cells, 10 uM compound): 104.0 % control
2. Nuclear Area (% Control) ([5]; BV2 cells, 10 uM compound): 103.5 % Control
3. Nuclear DNA Intensity (% control) ([5]; BV2 cells, 10 uM compound): 104.7 % control

solubility kinetic [1]: 150 µM (≈ 73.9 µg/mL)
SMILES: COCCOCCOC(=O)N[C@@H](CC(C)C)C(=O)N[C@@H](Cc1ccccc1)C(=O)C(=O)NC1CC1 [SNJ-1945]

SMILES: CCCN(CC1CC1)c1nc(C)nc(Nc2c(Cl)cc(Cl)cc2Cl)c1Cl.Cl [UNC10303155A]
4. Phagocytosis (% control) [2, 8]: 86.3 % control
4. Phagocytosis (% control) [3, 9]: 323.0 % control
1. Cell count (% control) ([4]; HMC3, compound 10 uM): 120.1 % control
2. Nuclear Area (% Control) ([4]; HMC3, compound 10 uM): 96.1 % Control
3. Nuclear DNA Intensity (% control) ([4]; HMC3, compound 10 uM): 105.3 % control
1. Cell count (% control) ([5]; BV2, compound 10 uM): 40.3 % control
2. Nuclear Area (% Control) ([5]; BV2, compound 10 uM): 117.9 % Control
3. Nuclear DNA Intensity (% control) ([5]; BV2, compound 10 uM): 98.5 % control

SMILES: Clc1ccc(N/N=C(\c2ccccc2)c2ccccn2)nc1 [UNC3735A]
4. Phagocytosis (% control) [2, 6]: 104.5 % control
4. Phagocytosis (% control) [3, 7]: 273.4 % control
1. Cell count (% control) ([4]; HMC3 cells, 10 uM compound): 86.4 % control
2. Nuclear Area (% Control) ([4]; HMC3 cells, 10 uM compound): 86.7 % Control
3. Nuclear DNA Intensity (% control) ([4]; HMC3 cells, 10 uM compound): 135.7 % control
1. Cell count (% control) ([5]; BV2 cells, 10 uM compound): 27.9 % control
2. Nuclear Area (% Control) ([5]; BV2 cells, 10 uM compound): 119.6 % Control
3. Nuclear DNA Intensity (% control) ([5]; BV2 cells, 10 uM compound): 94.7 % control

SMILES: Cl.N=C(CCl)NCCC[C@H](NC(=O)c1ccccc1)C(N)=O [UNC10303161A]
4. Phagocytosis (% control) [2, 8]: 67.2 % control
4. Phagocytosis (% control) [3, 9]: 134.6 % control
1. Cell count (% control) ([4]; HMC3, compound 10 uM): 164.2 % control
2. Nuclear Area (% Control) ([4]; HMC3, compound 10 uM): 99.9 % Control
3. Nuclear DNA Intensity (% control) ([4]; HMC3, compound 10 uM): 88.6 % control
1. Cell count (% control) ([5]; BV2, compound 10 uM): 107.1 % control
2. Nuclear Area (% Control) ([5]; BV2, compound 10 uM): 104.4 % Control
3. Nuclear DNA Intensity (% control) ([5]; BV2, compound 10 uM): 99.5 % control

SMILES: Cl.O=C(O)Cc1cccc(OCCCN(Cc2cccc(C(F)(F)F)c2Cl)CC(c2ccccc2)c2ccccc2)c1 [UNC10302974A]
4. Phagocytosis (% control) [2, 6]: 78.3 % control
4. Phagocytosis (% control) [3, 7]: 136.8 % control
1. Cell count (% control) ([4]; HMC3 cells, 10 uM compound): 138.8 % control
2. Nuclear Area (% Control) ([4]; HMC3 cells, 10 uM compound): 100.4 % Control
3. Nuclear DNA Intensity (% control) ([4]; HMC3 cells, 10 uM compound): 95.2 % control
1. Cell count (% control) ([5]; BV2 cells, 10 uM compound): 123.1 % control
2. Nuclear Area (% Control) ([5]; BV2 cells, 10 uM compound): 107.6 % Control
3. Nuclear DNA Intensity (% control) ([5]; BV2 cells, 10 uM compound): 102.2 % control

SMILES: CCc1ccc(CCOc2ccc(CC3SC(=O)NC3=O)cc2)nc1.Cl (stereo not drawn) [UNC10240376D]
4. Phagocytosis (% control) [2, 6]: 81.1 % control
4. Phagocytosis (% control) [3, 7]: 139.3 % control
1. Cell count (% control) ([4]; HMC3 cells, 10 uM compound): 140.5 % control
2. Nuclear Area (% Control) ([4]; HMC3 cells, 10 uM compound): 99.5 % Control
3. Nuclear DNA Intensity (% control) ([4]; HMC3 cells, 10 uM compound): 91.5 % control
1. Cell count (% control) ([5]; BV2 cells, 10 uM compound): 113.0 % control
2. Nuclear Area (% Control) ([5]; BV2 cells, 10 uM compound): 109.1 % Control
3. Nuclear DNA Intensity (% control) ([5]; BV2 cells, 10 uM compound): 109.5 % control

SMILES: Cc1ccccc1C(=O)Nc1ccc(C(=O)N2CCCC(O)c3cc(Cl)ccc32)c(C)c1 (stereo not drawn) [UNC10302860A]
4. Phagocytosis (% control) [2, 8]: 100.1 % control
4. Phagocytosis (% control) [3, 9]: 197.1 % control
1. Cell count (% control) ([4]; HMC3, compound 10 uM): 130.2 % control
2. Nuclear Area (% Control) ([4]; HMC3, compound 10 uM): 105.3 % Control
3. Nuclear DNA Intensity (% control) ([4]; HMC3, compound 10 uM): 93.3 % control
1. Cell count (% control) ([5]; BV2, compound 10 uM): 118.5 % control
2. Nuclear Area (% Control) ([5]; BV2, compound 10 uM): 108.9 % Control
3. Nuclear DNA Intensity (% control) ([5]; BV2, compound 10 uM): 107.5 % control

solubility kinetic [1]: 191 µM (≈ 55.9 µg/mL)
SMILES: Cc1cc(NC(=O)Nc2ccccc2)n(-c2ccccc2)n1 [CHEMBL86962 (VU0032230)]

SMILES: CCN1CCN(Cc2ccc(NC(=O)c3ccc(C)c(NC(=O)c4cncc(-c5cccs5)c4)c3)cc2C(F)(F)F)CC1 [UNC10303158A]
4. Phagocytosis (% control) [2, 8]: 0.0256 % control
4. Phagocytosis (% control) [3, 9]: 0.0043 % control
1. Cell count (% control) ([4]; HMC3, compound 10 uM): 36.9 % control
2. Nuclear Area (% Control) ([4]; HMC3, compound 10 uM): 59.1 % Control
3. Nuclear DNA Intensity (% control) ([4]; HMC3, compound 10 uM): 194.1 % control
1. Cell count (% control) ([5]; BV2, compound 10 uM): 10.2 % control
2. Nuclear Area (% Control) ([5]; BV2, compound 10 uM): 124.4 % Control
3. Nuclear DNA Intensity (% control) ([5]; BV2, compound 10 uM): 45.5 % control

SMILES: Cc1ccc(-n2nc(C(C)(C)C)cc2NC(=O)Nc2ccc(OCCN3CCOCC3)c3ccccc23)cc1 [UNC10225354A]
4. Phagocytosis (% control) [2, 6]: 109.7 % control
4. Phagocytosis (% control) [3, 7]: 236.7 % control
1. Cell count (% control) ([4]; HMC3 cells, 10 uM compound): 144.2 % control
2. Nuclear Area (% Control) ([4]; HMC3 cells, 10 uM compound): 99.1 % Control
3. Nuclear DNA Intensity (% control) ([4]; HMC3 cells, 10 uM compound): 93.2 % control
1. Cell count (% control) ([5]; BV2 cells, 10 uM compound): 127.7 % control
2. Nuclear Area (% Control) ([5]; BV2 cells, 10 uM compound): 105.8 % Control
3. Nuclear DNA Intensity (% control) ([5]; BV2 cells, 10 uM compound): 105.3 % control

SMILES: COc1ccc2nc([S+]([O-])Cc3ncc(C)c(OC)c3C)nc-2[nH]1 (stereo not drawn) [UNC10303106A]
4. Phagocytosis (% control) [2, 6]: 91.6 % control
4. Phagocytosis (% control) [3, 7]: 116.6 % control
1. Cell count (% control) ([4]; HMC3 cells, 10 uM compound): 100.3 % control
2. Nuclear Area (% Control) ([4]; HMC3 cells, 10 uM compound): 105.8 % Control
3. Nuclear DNA Intensity (% control) ([4]; HMC3 cells, 10 uM compound): 97.2 % control
1. Cell count (% control) ([5]; BV2 cells, 10 uM compound): 113.2 % control
2. Nuclear Area (% Control) ([5]; BV2 cells, 10 uM compound): 104.8 % Control
3. Nuclear DNA Intensity (% control) ([5]; BV2 cells, 10 uM compound): 103.4 % control
